According to patent US7338932B2, “Methods of modulating functions of polypeptide GalNAc-transferases and of screening test substances to find agents herefor, pharmaceutical compositions comprising such agents and the use of such agents for preparing medicaments” (Glycozym APS, priority 2000, dated 2008):
Entries after “also recorded” stand apart in the source; their conditions may differ. Ends that are not written are not given here.

How the values were obtained:
GalNAc-T7 = target: T1, GalNAc-T7 (Homo sapiens, UniProt Q86SF2); test: Inhibition of GalNAc-T7 activity with GalNAc2-3EA2 substrate; type: biochemical; details: 5 mM
T1 construct: made in house; host or cells: High Five insect cells (baculovirus)
T1 sequence (Q86SF2 30-657 limits assumed): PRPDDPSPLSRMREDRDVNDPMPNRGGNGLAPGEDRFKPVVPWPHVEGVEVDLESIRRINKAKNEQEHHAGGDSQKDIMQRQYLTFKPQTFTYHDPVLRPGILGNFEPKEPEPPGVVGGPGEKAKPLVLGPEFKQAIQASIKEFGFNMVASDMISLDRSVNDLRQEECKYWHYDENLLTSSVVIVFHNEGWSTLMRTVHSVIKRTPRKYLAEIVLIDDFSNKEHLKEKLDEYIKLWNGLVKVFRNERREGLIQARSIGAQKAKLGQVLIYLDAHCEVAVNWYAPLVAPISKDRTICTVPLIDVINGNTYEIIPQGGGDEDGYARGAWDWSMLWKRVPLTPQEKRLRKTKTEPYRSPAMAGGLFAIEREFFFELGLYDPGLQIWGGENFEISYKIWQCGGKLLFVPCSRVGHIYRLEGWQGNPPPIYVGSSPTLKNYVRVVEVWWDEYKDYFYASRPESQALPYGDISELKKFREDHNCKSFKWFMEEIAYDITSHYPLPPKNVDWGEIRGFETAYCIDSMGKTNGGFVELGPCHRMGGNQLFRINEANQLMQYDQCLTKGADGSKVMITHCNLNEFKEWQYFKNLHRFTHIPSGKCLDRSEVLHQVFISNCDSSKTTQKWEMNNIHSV
Procedure: (§1) Standard reaction mixtures (50 μl final volume) contained 25 mM cocadylate (pH 7.4), 10 mM MnCl2, 0.25% Triton X-100, 200 μM UDP-[^14C]-GalNAc (2,000 cpm/nmol) (Amersham), 200-500 μM acceptor peptides. Products were quantified by scintillation counting after chromatography on Dowex-1, octadecyl silica cartridges (Bakerbond), or HPLC (PC3.2/3 or mRPC C2/C18 SC2.1/10 Pharmacia, Smart System). […] Glycopeptides were purified on Supelclean LC-18 columns (1 ml, Supelco), and the number of GalNAc residues incorporated evaluated by MALDI-TOF mass spectrometry. The enzyme sources used were semipurified as previously described by successive sequential ion-exchange chromatographies on Amberlite (IRA95, Sigma) or DEAE Sephacel (Pharmacia), S-Sepharose Fast Flow (Pharmacia), and Mini-S™ (PC 3.2/3, Pharmacia) using the Smart System (Pharmacia) (28). Secreted GalNAc-T4 was obtained from a stably transfected CHO line (CHO/GalNA-T4/21A) (8) grown in roller bottles in HAMS F12 supplemented with 10% Fetal Bovine Serum. The experiments illustrated in FIG. 1 was performed with recombinant secreted GalNAc-T4 obtained from a stably transfected CHO line (8). Experiments illustrated in FIGS. 2 and 3 were performed with secreted GalNAc-T4 expressed in High Five cells grown in serum-free medium (8). Structural analysis of glycopeptides were performed by a combination of PFPA (pentafluoropropionic acid) hydrolysis and MALDI-TOF mass spectrometry as previously described (40). Secreted GalNAc-T7 was obtained from infected High Five™ cells grown in serum-free medium (Invitrogen) in upright roller bottles shaken 140 rpm in waterbaths at 27° C. GalNAc-T7 was not purified by Mini-S as the yields from cationic chromatography were low due to its low pI (6.4).
GalNAc-T7 activity was analysed with GalNAc glycosylated glycopeptides (represented by GalNAc2-3EA2 (7)) in reactions of 25 μl containing 2.5 nmol acceptor (glyco)peptide, 40 nmol UDP-GalNAc, and purified GalNAc-T7. […]

GalNAc-T2 = target: T2, GalNAc-T2 (Homo sapiens, UniProt Q10471); test: GalNAc-T2 transferase activities with UDP-GalNAc or UDP-Gal donor (Muc2 acceptor, peptide panel); type: biochemical; details: peptide as acceptor substrate
T2 construct: Soluble, secreted expression constructs of human GalNAc-transferases GalNAc-T1, -T2, -T3, -T4, -T6, -T7, and -T11; made in house; host or cells: insect cells (baculovirus)
Procedure: as §1
(§2) Galactosyl transferring activities of GalNAc-T1, -T2, and -T3, were assayed with a panel of acceptor peptides in standard reaction mixtures containing 100 μM UDP-Gal instead of UDP-GalNAc. […] Further, analysis was performed with 10 mM α-D-GalNAc-1-benzyl, αGlcNAc-benzyl, and fully occupied GalNAc-glycopeptide, GalNAC6TAP25, at 5 mM.

GalNAc-T3 = target: T3, GalNAc-T3 (Homo sapiens, UniProt Q14435); test: GalNAc-T3 transferase activities with UDP-GalNAc or UDP-Gal donor (EA2 acceptor, peptide panel); type: biochemical; details: peptide as acceptor substrate
T3 construct: Soluble, secreted expression constructs of human GalNAc-transferases GalNAc-T1, -T2, -T3, -T4, -T6, -T7, and -T11; made in house; host or cells: insect cells (baculovirus)
T3 sequence (Q14435 38-633 limits assumed): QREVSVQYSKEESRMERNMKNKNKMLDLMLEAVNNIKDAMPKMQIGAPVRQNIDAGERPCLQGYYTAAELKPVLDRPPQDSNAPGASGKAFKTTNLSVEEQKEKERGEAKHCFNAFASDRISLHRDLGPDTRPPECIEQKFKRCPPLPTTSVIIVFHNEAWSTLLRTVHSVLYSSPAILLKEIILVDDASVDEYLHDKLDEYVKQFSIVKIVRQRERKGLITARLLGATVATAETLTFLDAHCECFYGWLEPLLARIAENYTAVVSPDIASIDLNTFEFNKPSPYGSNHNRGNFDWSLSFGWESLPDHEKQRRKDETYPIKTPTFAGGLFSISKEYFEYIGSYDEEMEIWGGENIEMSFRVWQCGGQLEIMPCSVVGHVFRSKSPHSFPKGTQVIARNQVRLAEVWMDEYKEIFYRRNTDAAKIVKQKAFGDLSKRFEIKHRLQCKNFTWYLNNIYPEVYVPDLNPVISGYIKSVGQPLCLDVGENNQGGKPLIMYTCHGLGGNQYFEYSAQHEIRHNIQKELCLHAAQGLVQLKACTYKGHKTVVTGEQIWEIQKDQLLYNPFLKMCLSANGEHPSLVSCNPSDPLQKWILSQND
Procedure: as §1, §2

[1] = system: CHOldlD/MUC1F-clone2 cells; test: MUC1 expression in cell lysates, immunoprecipitation and SDS-PAGE western blot; type: cell-based, Chinese Hamster; details: 2 mM, 36 hours
Procedure: We next analysed the expression of MUC1 produced by CHOldlD/MUC1F-clone2 cells by SDS-PAGE western analysis. […] Cells were further treated with 2 mM GalNAcα-benzyl, GlcNAcα-benzyl or no inhibitor. Cells were washed and lysed at 24 or 48 hours and the lysates subjected to immunoprecipitation with monoclonal antibody HMFG2, which broadly recognize MUC1 glycoforms. Immunoprecipitates were analysed by SDS-PAGE and western blot using HMFG2 antibody to detect MUC1 expression. […] In striking contrast, treatment with GalNAcα-benzyl had significant effect after 48 hours. […] This indicates some heterogeneity in glycosylation.
As shown in Examples 8 and 9, polypeptide GalNAc-transferases contain lectin domains with binding properties for GalNAc-peptides including GalNAc-MUC1 peptides. […] GalNAcβ-benzyl, the β-anomeric configuration of GalNAc-benzyl (there is a β linkage between the N-acetylgalactosamine and the benzyl ring), was custom synthesized by Alberta Research Council (Canada), and its structure was confirmed by mass spectrometry and ^1H-NMR. […] Cells were then treated with 2 mM GalNAcα-benzyl, GalNAcβ-benzyl, or GlcNAcα-benzyl as control (GlcNAcα-benzyl was shown in Example 10 to have no effect). Cells were washed and lysed as described above after 36 hours and the lysates subjected to immunoprecipitation with anti-MUC1 monoclonal antibodies HMFG2 or 5E5. […] FIG. 17 illustrates the same experiments as in FIG. 16 except that the detection antibody is 5E5 and only Tn and STn MUC1 glycoforms are visualised.

[2] = system: wild type CHO/MUC1sol-cloneC4; test: Secretion of MUC1, western blot of medium; type: cell-based, Chinese Hamster; details: 1-2 mM; compared to control treated or non-treated cells
Procedure: In order to characterize the secreted MUC1 product SDS-PAGE western blot analysis of harvested culture medium of confluent cultures were performed. Ten to twenty μL culture supernatant was analysed directly or treated with 0.1 U/mL neuraminidase (C. Perfringes VI, Sigma) for 30-60 min at 37° C. Samples were mixed with SDS sample buffer, reduced with DTT, and run on precast 4-20% gels (Biorad). As shown in FIG. 9 anti-MUC1 antibodies detected two forms of MUC1 in the medium; a low molecular weight form migrating as 130-140 kd corresponding to unglycosylated product, and a high molecular weight form migrating above 250 kd. The high molecular weight form was sensitive to neuraminidase treatment as evidenced by a marked shift and retardation in migration. […]
Because GalNAcα-benzyl exerts separate effects on O-glycan processing and mucin expression, the use of the novel selective inhibitor of mucin expression, GalNAcβ-benzyl, allow analysis of mucin expression and secretion in different cell line models. […] Most human adenocarcinoma cell lines express and secret mucins and analysis with antibodies to detect protein expression or probes to detect mRNA can reveal the types and quantities of mucins. […] The inhibitory effect on mucin secretion can be quantified by a number of assays known to the skilled in the art including western blot, ELISA, gelfiltration, immunocapture, and other assays.

T2 sequence (Q10471 52-571 limits assumed): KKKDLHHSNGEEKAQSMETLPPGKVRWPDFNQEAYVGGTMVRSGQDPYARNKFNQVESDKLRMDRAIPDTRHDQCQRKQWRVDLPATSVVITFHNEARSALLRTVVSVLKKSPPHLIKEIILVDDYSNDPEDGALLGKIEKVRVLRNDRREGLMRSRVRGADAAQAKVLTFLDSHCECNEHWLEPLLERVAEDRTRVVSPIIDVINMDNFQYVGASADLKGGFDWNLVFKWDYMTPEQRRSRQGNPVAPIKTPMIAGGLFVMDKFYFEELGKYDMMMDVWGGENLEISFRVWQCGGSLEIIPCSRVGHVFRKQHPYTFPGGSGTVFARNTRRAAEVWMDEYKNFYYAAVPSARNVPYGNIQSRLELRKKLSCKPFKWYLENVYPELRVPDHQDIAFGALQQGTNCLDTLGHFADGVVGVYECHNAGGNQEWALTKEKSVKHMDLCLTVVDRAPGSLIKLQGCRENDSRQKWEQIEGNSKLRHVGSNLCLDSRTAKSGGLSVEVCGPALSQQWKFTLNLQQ

Row | Compound | Inhibition of GalNAc-T7 activity with GalNAc2-3EA2 (GalNAc-T7) | GalNAc-T2 activity with UDP-Gal by acceptor peptide (GalNAc-T2) [nmol/min/mL] | GalNAc-T3 activity with UDP-Gal by acceptor peptide (GalNAc-T3) [nmol/min/mL] | other results
1 | CC(=O)N[C@H]1[C@@H](OCc2ccccc2)O[C@H](CO)[C@H](O)[C@@H]1O[C@@H]1O[C@H](CO)[C@H](O)[C@H](O)[C@H]1O [Galβ1-3GalNAcα1-bz] | significantly inhibited |  |  | 
2 | Muc7: acceptor peptide Ac-CPPTPSATTPAPPSSSAPPETTAA derived from human salivary gland mucin MUC7 |  | 13 | 0.1 | 
3 | CC(=O)N[C@H]1[C@H](OCc2ccccc2)O[C@H](CO)[C@H](O)[C@@H]1O [GalNAcβ-benzyl, benzyl-2-acetamido-2-deoxy-β-D-galactopyranoside galactosamine] |  |  |  | MUC1 expression ([1]; blot 5E5, cells grown in GalNAc): strong inhibition; also recorded: same or better reduction in MUC1 expression; MUC1 expression ([1]; blot HMFG2, grown in GalNAc or Gal and GalNAc): same or better reduction in MUC1 expression; SDS-PAGE migration of MUC1 (O-glycosylation) ([1]; cells grown in Gal and GalNAc): no change in the migration of MUC1; Secreted MUC1 in medium [2]: inhibition of secreted MUC1
4 | EA2: acceptor peptide PTTDSTTPAPTTK derived from rat submandibular gland mucin |  | 1.5 | 6.8 | 
5 | OC[C@H]1O[C@@H](OCc2ccccc2)[C@H](O)[C@@H](O)[C@H]1O [bz-βGal] | significantly inhibited |  |  | 
